In the assay the test system is L1210 leukemia ip in BDF1 mice, survival T/C. Put plainly: NCI In Vivo Anticancer Drug Screen. Data for tumor model L1210 Leukemia (intraperitoneal) in B6D2F1 (BDF1) mice. Particulars: endpoint: mean survival time, higher = longer survival. Summed up:
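Survival endpoint. Drug-treated group vs vehicle group, expressed as T divided by C. Tumor passaged by transplantation.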

The mark [1] stands for this setting: dose: 100.0 mg/kg/injection, schedule: Q04DX003 (ip), vehicle: saline with Tween-80.
The mark [2] stands for this setting: dose: 200.0 mg/kg/injection, schedule: Q04DX003 (ip), vehicle: saline with Tween-80.
Setting [3] is: dose: 400.0 mg/kg/injection, schedule: Q04DX003 (ip), vehicle: saline with Tween-80.
Setting [4] is: dose: 100.0 mg/kg/injection, schedule: Q01DX009 (ip), vehicle: saline.
[5] abbreviates: dose: 100.0 mg/kg/injection, schedule: Q04DX003 (ip), vehicle: saline.
The mark [6] stands for this setting: dose: 200.0 mg/kg/injection, schedule: Q01DX009 (ip), vehicle: saline.
The mark [7] stands for this setting: dose: 200.0 mg/kg/injection, schedule: Q04DX003 (ip), vehicle: saline.
[8] abbreviates: dose: 400.0 mg/kg/injection, schedule: Q01DX009 (ip), vehicle: saline.
Setting [9] is: dose: 400.0 mg/kg/injection, schedule: Q04DX003 (ip), vehicle: saline.
Setting [10] is: dose: 100.0 mg/kg/injection, schedule: Q01DX001 (ip), vehicle: saline.
Where [11] appears, read: dose: 200.0 mg/kg/injection, schedule: Q01DX001 (ip), vehicle: saline.
The mark [12] stands for this setting: dose: 400.0 mg/kg/injection, schedule: Q01DX001 (ip), vehicle: saline.

Molecules are shown by their SMILES. Several values for one entry are separate records, joined by “and”; a condition that tells them apart may be missing. Equal values may be shown once. Inconclusive results and toxic doses are left out.

With `O=C(NC(=S)Nc1ccc(O)cc1)c1cccc([N+](=O)[O-])c1`, the T/C reads like this: (dose: 100.0 mg/kg/injection, schedule: Q01DX001 (ip), vehicle: saline with Tween-80) 87 % of control; (dose: 100.0 mg/kg/injection, schedule: Q01DX009 (ip), vehicle: saline with Tween-80) 99 % of control and 103 % of control; (dose: 100.0 mg/kg/injection, schedule: Q04DX002 (ip), vehicle: saline with Tween-80) 101 % of control; under setting [1], 94 % of control; (dose: 200.0 mg/kg/injection, schedule: Q01DX001 (ip), vehicle: saline with Tween-80) 91 % of control; (dose: 200.0 mg/kg/injection, schedule: Q01DX009 (ip), vehicle: saline with Tween-80) 92 % of control and 100 % of control. Further, the T/C is, setting by setting: (dose: 200.0 mg/kg/injection, schedule: Q04DX002 (ip), vehicle: saline with Tween-80) 97 % of control; under setting [2], 96 % of control; (dose: 400.0 mg/kg/injection, schedule: Q01DX001 (ip), vehicle: saline with Tween-80) 101 % of control; (dose: 400.0 mg/kg/injection, schedule: Q01DX009 (ip), vehicle: saline with Tween-80) 92 % of control and 100 % of control; (dose: 400.0 mg/kg/injection, schedule: Q04DX002 (ip), vehicle: saline with Tween-80) 90 % of control; under setting [3], 95 % of control.
On to `Cc1cc(C(C)(C)CC(C)(C)C)ccc1O`, for which the T/C (dose: 100.0 mg/kg/injection, schedule: Q01DX009 (sc), vehicle: olive oil, sesame oil, peanut oil) was 100 % of control; the T/C (dose: 100.0 mg/kg/injection, schedule: Q04DX003 (sc), vehicle: olive oil, sesame oil, peanut oil) is 110 % of control; the T/C (dose: 200.0 mg/kg/injection, schedule: Q01DX009 (sc), vehicle: olive oil, sesame oil, peanut oil) was 100 % of control; the T/C (dose: 200.0 mg/kg/injection, schedule: Q04DX003 (sc), vehicle: olive oil, sesame oil, peanut oil) was 101 % of control; the T/C (dose: 400.0 mg/kg/injection, schedule: Q01DX009 (sc), vehicle: olive oil, sesame oil, peanut oil) is 96 % of control; the T/C (dose: 400.0 mg/kg/injection, schedule: Q04DX003 (sc), vehicle: olive oil, sesame oil, peanut oil) is 105 % of control.
In the case of `O=C1NC2(C=CC(Br)CC2)C(=O)C12CCCCC2` (centres undefined) (tested in a mixture with another compound), under “dose: 150.0 mg/kg/injection, schedule: Q01DX001 (ip), vehicle: saline”, the T/C is 94 % of control.
Regarding `CCOC(=O)N1c2ccccc2C=CC1C#N` (centres undefined), the T/C reads like this: (dose: 44.0 mg/kg/injection, schedule: Q04DX003 (ip), vehicle: saline) 108 % of control; (dose: 66.0 mg/kg/injection, schedule: Q04DX003 (ip), vehicle: saline) 105 % of control; under setting [4], 93 % of control; under setting [5], 94 % of control and 96 % of control; under setting [6], 100 % of control; under setting [7], 101 % of control and 102 % of control. In addition, the T/C runs as follows: under setting [8], 95 % of control; under setting [9], 102 % of control.
Turning to `COc1cccc(N=Nc2ccc(N(C)C)cc2)c1`, the T/C is 95 % of control under setting [10], 95 % of control under setting [11] and 103 % of control under setting [12].
`Cc1nc(=O)ccn1Cc1ccccc1`: the T/C was 101 % of control under setting [5], 101 % of control under setting [7] and 96 % of control under setting [9].
Regarding `COC1=C(N2CC2)C(=O)C(OC)=C(N2CC2)C1=O`, the T/C is, setting by setting: (dose: 0.5 mg/kg/injection, schedule: Q01DX009 (ip), vehicle: carboxymethylcellulose (CMC)) 114 % of control; (dose: 1.0 mg/kg/injection, schedule: Q01DX009 (ip), vehicle: carboxymethylcellulose (CMC)) 124 % of control; (dose: 3.0 mg/kg/injection, schedule: Q01DX009 (ip), vehicle: carboxymethylcellulose (CMC)) 121 % of control.
In the case of `NCC(=O)c1ccc(O)c(O)c1`, the T/C was 101 % of control under setting [10]; 122 % of control under setting [4]; 97 % of control under setting [5]; 115 % of control (dose: 175.0 mg/kg/injection, schedule: Q01DX Z (ip), vehicle: methylcellulose (MC)); 93 % of control under setting [11]; 97 % of control under setting [7]. Moreover, the T/C runs as follows: (dose: 260.0 mg/kg/injection, schedule: Q01DX Z (ip), vehicle: carboxymethylcellulose (CMC)) 112 % of control; (dose: 260.0 mg/kg/injection, schedule: Q01DX Z (ip), vehicle: methylcellulose (MC)) 121 % of control; (dose: 270.0 mg/kg/injection, schedule: Q01DX Z (ip), vehicle: methylcellulose (MC)) 117 % of control; under setting [12], 104 % of control; under setting [8], 124 % of control; (dose: 400.0 mg/kg/injection, schedule: Q01DX Z (ip), vehicle: methylcellulose (MC)) 112 % of control. Moreover, the T/C runs as follows: under setting [9], 95 % of control; (dose: 600.0 mg/kg/injection, schedule: Q01DX Z (ip), vehicle: carboxymethylcellulose (CMC)) 116 % of control; (dose: 600.0 mg/kg/injection, schedule: Q01DX Z (ip), vehicle: methylcellulose (MC)) 114 % of control; (dose: 1344.0 mg/kg/injection, schedule: Q01DX Z (ip), vehicle: carboxymethylcellulose (CMC)) 92 % of control.
As to `Clc1cc[n+](-c2ccncc2)cc1`, the T/C runs as follows: under setting [10], 103 % of control; under setting [4], 100 % of control and 105 % of control; (dose: 100.0 mg/kg/injection, schedule: Q04DX002 (ip), vehicle: saline) 97 % of control and 103 % of control; under setting [5], 95 % of control; under setting [11], 90 % of control; under setting [6], 105 % of control and 89 % of control. In addition, the T/C reads like this: (dose: 200.0 mg/kg/injection, schedule: Q04DX002 (ip), vehicle: saline) 94 % of control and 89 % of control; under setting [7], 101 % of control; under setting [12], 97 % of control; under setting [8], 97 % of control; (dose: 400.0 mg/kg/injection, schedule: Q04DX002 (ip), vehicle: saline) 100 % of control and 92 % of control; under setting [9], 88 % of control.
In the case of `O=c1[nH]c2ccccc2c(=O)o1`, the T/C was 96 % of control under setting [10], 89 % of control under setting [11] and 89 % of control under setting [12].
`O=C(Nc1ccc(C(=O)O)cc1)Nc1cccc2ccccc12`: the T/C runs as follows: (dose: 100.0 mg/kg/injection, schedule: Q04DX002 (ip), vehicle: Klucel (hydroxypropylcellulose) (HPC)) 113 % of control; (dose: 200.0 mg/kg/injection, schedule: Q04DX002 (ip), vehicle: Klucel (hydroxypropylcellulose) (HPC)) 93 % of control; (dose: 400.0 mg/kg/injection, schedule: Q04DX002 (ip), vehicle: Klucel (hydroxypropylcellulose) (HPC)) 97 % of control.
As for `O=S1(=O)C2CCCCC2(N2CCOCC2)C1c1ccccc1` (centres undefined), the T/C runs as follows: (dose: 66.0 mg/kg/injection, schedule: Q04DX003 (ip), vehicle: other) 118 % of control; (dose: 100.0 mg/kg/injection, schedule: Q01DX009 (ip), vehicle: other) 97 % of control; (dose: 100.0 mg/kg/injection, schedule: Q04DX003 (ip), vehicle: other) 101 % of control and 202 % of control; (dose: 150.0 mg/kg/injection, schedule: Q04DX003 (ip), vehicle: other) 93 % of control; (dose: 200.0 mg/kg/injection, schedule: Q01DX009 (ip), vehicle: other) 97 % of control; (dose: 200.0 mg/kg/injection, schedule: Q04DX003 (ip), vehicle: other) 97 % of control. The T/C was 100 % of control (dose: 400.0 mg/kg/injection, schedule: Q01DX009 (ip), vehicle: other) and 94 % of control (dose: 400.0 mg/kg/injection, schedule: Q04DX003 (ip), vehicle: other).
For `O=[N+]([O-])c1cnccc1/C=C\c1ccccc1`, the T/C was 86 % of control (dose: 100.0 mg/kg/injection, schedule: Q01DX001 (ip), vehicle: Klucel (hydroxypropylcellulose) (HPC)); 105 % of control (dose: 200.0 mg/kg/injection, schedule: Q01DX001 (ip), vehicle: Klucel (hydroxypropylcellulose) (HPC)); 94 % of control (dose: 400.0 mg/kg/injection, schedule: Q01DX001 (ip), vehicle: Klucel (hydroxypropylcellulose) (HPC)).
For the compound `CC(C)C(=O)OCP(=O)(COC(=O)C(C)C)COC(=O)C(C)C`, the T/C reads like this: under setting [1], 92 % of control; under setting [2], 97 % of control; under setting [3], 93 % of control.
